We go through 19 compounds from patent US20050203065A1, “Method of treating ischemia reperfusion injury using adenosine receptor antagonists” (priority 2002, published 2005).

One may read the Ki as a measure of affinity in units of concentration, obtained from inhibition or displacement.

For test [1], the system named is open-chest, barbital-anesthetized dogs. The test is described as follows: Protocol II (preconditioning): four 5-minute occlusion/reperfusion cycles before 60-minute occlusion and 3 hours reperfusion in dogs. In kind it is in vivo, dog. How it is done:
Preconditioning was elicited by four 5-minute occlusion/5-minute reperfusion cycles produced 10 minutes before the 60-minute occlusion.

Test [2] has as its target T1, recombinant canine A1 adenosine receptors (Canis lupus familiaris, UniProt P11616).
T1 construct: expressed in transfected cells
T1 sequence (P11616 1-326): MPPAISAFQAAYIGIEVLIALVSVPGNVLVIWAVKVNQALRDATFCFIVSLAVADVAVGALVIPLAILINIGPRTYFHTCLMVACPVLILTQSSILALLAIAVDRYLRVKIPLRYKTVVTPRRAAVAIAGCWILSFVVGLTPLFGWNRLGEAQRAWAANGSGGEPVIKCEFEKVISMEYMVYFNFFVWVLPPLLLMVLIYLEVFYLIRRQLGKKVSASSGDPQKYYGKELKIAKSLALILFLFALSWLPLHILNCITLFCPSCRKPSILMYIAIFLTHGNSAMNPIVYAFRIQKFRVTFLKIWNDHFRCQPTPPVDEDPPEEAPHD
The test is described as follows: Radioligand competition binding, canine A1 receptor (3H-CPX), transfected HEK 293 membranes. How it is done:
(§1) Membranes (40-70 μg membrane protein), radioligands, and varying concentrations of competing ligands were incubated in triplicate in 0.1 ml buffer HE plus 2 units/mL adenosine deaminase for 2.5 hours at 21° C. The radioligands used for competitive binding assays were: [^3H]-8-cyclopentyl-1,3-dipropyxanthine ([^3H]-DPCPX) (NEN, Boston, Mass.) for A1 and A2b adenosine receptors, [^3H]-4-(2-[7-amino-2-(furyl)(1,2,4)triazole(2,3-a)(1,3,5)triazin-5-ylaminoethyly)phenol ([^3H] ZM241385) for A2a adenosine receptors (Tocris, Bristol, UK), and [^125Iodine]-labeled N6-(4-aminobenzyl)-9-(5-(methylcarbonyl)-β-D-ribofuranosyl) adenine ([^125I]-AB-MECA) or [^3H]-R-N^6-phenylisopropyladenosine (H^3R]-R-PIA) for A3 adenosine receptors (both from NEN, Boston, Mass.). Nonspecific binding was measured in the presence of 10 μM 5′N ethylcarboxamidoadenosine (NECA, from RBI-Sigma, Natick, Mass.) for A1 and A2b receptors, or 10 μM xanthine amino congener (XAC, from RBI-Sigma, Natick, Mass.) for A2a receptors. Binding assays were terminated by filtration over Whatman GF/C glass fiber filters using a BRANDEL cell harvester (Gaithersburg, Md.).
In general terms: Loss of bound radioactivity is the signal in a displacement assay; it reports binding, not function.

Test [3] has as its system open-chest, barbital-anesthetized dogs. The test is described as follows: Protocol I (pretreatment): 60 minutes of coronary artery occlusion and 3 hours of reperfusion in dogs.
Protocol: (§2) The studies were performed in open-chest, barbital-anesthetized dogs instrumented to measure heart rate, blood pressure, left ventricular pressure, and regional myocardial blood flow (radioactive microspheres). A mechanical occluder was placed around a proximal portion of the left anterior descending coronary artery to produce ischemia and reperfusion. At the end of the experiments, infarct size was determined-by histochemical staining (patent blue dye and triphenyltetrazolium) and expressed as a percentage of the region at risk or as a percentage of the entire left ventricle.
In the pretreatment protocol (see FIG. 1, protocol I), the dogs were subjected to 60 minutes of coronary artery occlusion and 3 hours or reperfusion after which the hearts were removed and infarct size was assessed. […] All of the antagonists were administered at a dose of 1 mg/kg as an i.v. bolus followed by and infusion of 10 μg/kg/min continued until immediately before reperfusion (70 minutes total).
Test [4] shares this test system. The test is described as follows: Protocol III (reperfusion): 60 minutes occlusion and 3 hours reperfusion, drug from 10 minutes before release of occlusion, dogs. The class given is in vivo, dog.
Protocol: as §2
In the reperfusion protocol (see FIG. 3, protocol III), the dogs were subjected to 60 minutes of coronary artery occlusion followed by three hours of reperfusion. […] The antagonists were administered at a dose of 1 mg/kg i.v. bolus followed by an infusion of 10 μg/kg/min for one hour.
For test [5], the target named is T2, recombinant canine A3 adenosine receptors (Canis lupus familiaris, UniProt Q28309).
T2 construct: expressed in transfected cells
T2 sequence (Q28309 1-314): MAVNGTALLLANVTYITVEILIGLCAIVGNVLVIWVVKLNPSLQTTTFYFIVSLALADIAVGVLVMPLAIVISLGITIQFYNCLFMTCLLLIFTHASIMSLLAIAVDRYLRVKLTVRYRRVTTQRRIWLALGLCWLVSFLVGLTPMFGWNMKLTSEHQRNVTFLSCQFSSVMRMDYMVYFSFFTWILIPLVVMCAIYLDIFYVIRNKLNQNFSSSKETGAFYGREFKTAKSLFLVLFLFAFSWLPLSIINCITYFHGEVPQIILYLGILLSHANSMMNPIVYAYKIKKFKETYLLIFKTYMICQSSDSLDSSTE
The test can be described thus: Radioligand competition binding, canine A3 receptor (R-PIA), transfected HEK 293 membranes. The conditions noted are these: mean ± SEM, n = 3. How it is done:
as §1, with “Md.). The-filters were rinsed three times with 3-4 mL ice-cold 10 mM Tris-HCl, pH 7.4 and 5 mM magnesium chloride (MgCl2) at 4° C., and were counted in a Wallac β-counter (Perkin Elmer, Boston, Mass.).” for “Md.).”

The target of test [6] is T3, recombinant canine A2a adenosine receptors (Canis lupus familiaris, UniProt P11617).
T3 construct: expressed in transfected cells
T3 sequence (P11617 whole entry): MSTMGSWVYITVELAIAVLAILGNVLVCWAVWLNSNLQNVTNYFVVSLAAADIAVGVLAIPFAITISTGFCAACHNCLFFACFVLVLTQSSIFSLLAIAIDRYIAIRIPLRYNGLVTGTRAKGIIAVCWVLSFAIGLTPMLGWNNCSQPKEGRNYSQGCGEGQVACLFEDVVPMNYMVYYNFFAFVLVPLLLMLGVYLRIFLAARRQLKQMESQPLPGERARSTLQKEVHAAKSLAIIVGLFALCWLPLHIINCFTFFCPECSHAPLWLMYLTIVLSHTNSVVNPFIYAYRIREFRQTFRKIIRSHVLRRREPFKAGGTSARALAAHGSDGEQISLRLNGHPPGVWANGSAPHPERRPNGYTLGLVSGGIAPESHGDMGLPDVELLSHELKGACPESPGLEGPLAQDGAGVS
The test is described as follows: Radioligand competition binding, canine A2a receptor (3H-ZM 241385), transfected HEK 293 membranes. How it is done:
Membranes (40-70 μg membrane protein), radioligands, and varying concentrations of competing ligands were incubated in triplicate in 0.1 ml buffer HE plus 2 units/mL adenosine deaminase for 2.5 hours at 21° C. […] Nonspecific binding was measured in the presence of 10 μM 5′N ethylcarboxamidoadenosine (NECA, from RBI-Sigma, Natick, Mass.) for A1 and A2b receptors, or 10 μM xanthine amino congener (XAC, from RBI-Sigma, Natick, Mass.) for A2a receptors. Binding assays were terminated by filtration over Whatman GF/C glass fiber filters using a BRANDEL cell harvester (Gaithersburg, Md.).

In test [7] the target is T4, human A2B adenosine receptors (Homo sapiens, UniProt P29275).
T4 sequence (P29275 1-332): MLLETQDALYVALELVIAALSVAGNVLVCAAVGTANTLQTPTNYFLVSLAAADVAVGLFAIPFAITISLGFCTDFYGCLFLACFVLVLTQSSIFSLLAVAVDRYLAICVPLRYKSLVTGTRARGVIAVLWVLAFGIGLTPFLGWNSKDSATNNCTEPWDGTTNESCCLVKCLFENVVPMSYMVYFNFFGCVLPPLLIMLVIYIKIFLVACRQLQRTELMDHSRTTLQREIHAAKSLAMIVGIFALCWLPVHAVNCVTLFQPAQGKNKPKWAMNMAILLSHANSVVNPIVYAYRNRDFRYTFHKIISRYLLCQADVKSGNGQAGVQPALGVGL
The test is described as follows: Radioligand competitive binding, ADENOSINE A2B (HEK293), [3H]-DPCPX (Table 8). Set-up: purchased Receptor Biology; host or cells: HEK 293. The conditions noted are these: [3H]-DPCPX 30-40 nM. How it is done:
Membranes (50 μg membrane protein), radioligands, and varying concentrations of competing ligands were incubated in triplicate in 0.1 mL buffer HE plus 2 units/mL adehosine, deaminase for 2 hours at 21° C. The radioligand used for competitive binding assays for human A2B adenosine receptors was [^3H]-8-cyclopentyl-1,3-dipropyxanthine ([^3H]-DPCPX, 30-40 nM) (NEN, Boston, Mass.). Nonspecific binding was measured in the presence of 10 μM 5′N-ethylcarboxamidoadenosine (NECA; from RBI-Sigma, Natick, Mass.). Binding assays were terminated by filtration over Whatman GF/C glass fiber filters using a BRANDEL cell harvester (Gaithersburg, Md.). The filters were rinsed three times with 3 to 4 mL ice-cold 10 mM Tris-HCl, pH 7.4 and 5 mM magnesium chloride (MgCl2) at 4° C. and were counted in a Wallac β-counter (Perkin Elmer, Boston, Mass.).
Competitive binding data were fit to a single site binding model and plotted using Prizm GraphPad. The Cheng-Prusoff equation KI=IC50/(1+[I]/KD) was used to calculate KI values from IC50 values, where KI is the affinity constant for the competing ligand, [I] is the concentration of the free radioligand, and KD is the affinity constant for the radioligand (Cheng and Prusoff 1973).

As to `CCCn1c(=O)c2[nH]c(C3CCCC3)nc2n(CCC)c1=O` [CPX, 8-Cyclopentyl-1,3-dipropyl-3,7-dihydro-purine-2,6-dione], the “Addition to the protective effect of ischemic preconditioning” value in test [1] (Protocol II) is “added to the protective effect”. Moreover, in test [1] (Protocol II (preconditioning)), the “Relationship between infarct size and collateral blood flow compared to preconditioned control” value is listed as “shifted downward further”. Further, the “Effect on the protective effects of ischemic preconditioning” value in test [1] (Protocol II, 1 mg/kg i.v. bolus + 10 μg/kg/min) was “did not block”. Moreover, the Ki came to 18.1 ± 4.4 nM in test [2], 1960 nM in test [5] and 162 ± 22 nM in test [6]. Moreover, the “Relationship between infarct size and transmural collateral blood flow compared to control group” value in test [3] is given as “shifted downward”. Further, the “Infarct size (percentage of risk region or of left ventricle) compared with control, in words” value in test [3] (1 mg/kg i.v. bolus + 10 μg/kg/min from 10 minutes before occlusion) was “significantly smaller”. In addition, the Infarct size reduction in test [3] (1 mg/kg i.v. bolus + 10 μg/kg/min from 10 minutes before occlusion, vs control) came out at 51%. Further, the “Infarct size expressed as a percentage of the entire left ventricle, in words” value in test [4] is listed as “a significant reduction in infarct size was not observed”. Moreover, the “Relationship between infarct size and collateral blood flow compared to control group” value in test [4] is “shifted downward”. For the same compound, the “Reduction in infarct size (percentage of the risk region)” value in test [4] (1 mg/kg i.v. bolus + 10 μg/kg/min for one hour from 10 minutes before release of occlusion) amounted to 42%. For the same compound, in test [4] (administration during the early phase of reperfusion), the “Infarct size expressed as a percentage of the risk region, in words” value was “reduced significantly”.
As to `CCCn1c(=O)c2[nH]c(C34CCC(CN(C)C)(CC3)CC4)nc2n(CCN)c1=O` [Compound 4], in test [7], the Ki was 39 nM.
On the same count and under the same terms, the result for `CCCn1c(=O)c2[nH]c(C34CCC(/C=C/C(=O)O)(CC3)OC4)nc2n(CCC)c1=O` [Compound 13] reads 117 nM; that for `CCCn1c(=O)c2[nH]c(C34CCC(/C=C/C(=O)O)(CC3)CC4)nc2n(CCC)c1=O` [Compound 12], 100 nM; that for `CCCn1c(=O)c2[nH]c(C3C4CC5C(C4CCCN(C)C)C53)nc2n(CCC)c1=O` (stereo not shown) [Compound 1], 14.6 nM.
The compound `CCCn1c(=O)c2[nH]c(C34CCC(OCCC(=O)O)(CC3)C4)nc2n(CCC)c1=O` [Compound 14] came in with a Ki in test [7] of 125 nM.
Same read-out and setting: the figure for `CCCn1c(=O)c2[nH]c(C34CCCC(O)(CC3)CC4)nc2n(CCC)c1=O` [Compound 6] is 47 nM; for `CCCn1c(=O)c2nc(C34CCC(CCC(=O)Nc5nnn[nH]5)(CC3)CC4)[nH]c2n(CCC)c1=O` [Compound 10] it is 85.6 nM.
The same measure, in the same setting: the figure for `CCCn1c(=O)c2[nH]c(-c3ccc(C#N)cc3)c(O)c2n(CCC)c1=O` [Compound 3] is 27 nM; for `CCCn1c(=O)c2[nH]c(C34CCC(O[C@@H](C)C(=O)O)(CC3)CC4)nc2n(CCC)c1=O` [Compound 5] it is 45.1 nM.
Take `CCCn1c(=O)c2[nH]c(C34CCC(OCC(=O)O)(CC3)C4)nc2n(CCC)c1=O` [Compound 2]: affinity in test [7] was put at a Ki of 15.2 nM.
The same measure, in the same setting: the result for `CCCn1c(=O)c2nc(C34CCC(C5=NOC(C(=O)O)C5)(CC3)CC4)[nH]c2n(CCC)c1=O` (stereo not shown) [Compound 16] reads 131 nM; that for `CCCn1c(=O)c2[nH]c(C34CCC(O)C(CC3)C4)nc2n(CCC)c1=O` (stereo not shown) [Compound 9], 76.9 nM.
The same measure, in the same setting: the result for `CCCn1c(=O)c2[nH]c(C3CC4CCC(C3)C4NCC(=O)OCC)nc2n(CCC)c1=O` (stereo not shown) [Compound 11] reads 93 nM; that for `CCCn1c(=O)c2[nH]c(C34CCC(CCc5nnn[nH]5)(CC3)CC4)nc2n(CCC)c1=O` [Compound 17], 160 nM.
On the same count and under the same terms, the result for `CCCn1c(=O)c2[nH]c(C34CCC(CN)(CC3)CC4)nc2n(CCC)c1=O` [Compound 8] reads 55.2 nM; that for `CCCn1c(=O)c2nc(C34CCC(CCCC(=O)O)(CC3)CC4)[nH]c2n(CCC)c1=O` [Compound 15], 127 nM; that for `CCCn1c(=O)c2[nH]c(C34CCCC(OCC(=O)O)(CC3)CC4)nc2n(CCC)c1=O` [Compound 18], 168 nM.
In test [7], `CCCn1c(=O)c2[nH]c(C34CCC(CCC(=O)O)(CC3)CC4)nc2n(CCC)c1=O` [Compound 7] returned a Ki of 51.4 nM.
